Here are results for 19 molecules from PMC8303886, “Polyphenylglyoxamide-Based Amphiphilic Small Molecular Peptidomimetics as Antibacterial Agents with Anti-Biofilm Activity” (International Journal of Molecular Sciences, 2021).

The test system of this assay is S. aureus (SA38). The assay can be described thus: Minimum inhibitory concentration (MIC) assay against S. aureus. The note with it: S. aureus SA38, read-out: MIC S. aureus. It counts as cell-based, Staphylococcus aureus.

“And” between values parts separate entries of the source, which are not always exact repeats. Identical values can stand only once. Like-named read-outs stand apart in the source and are kept apart here.

Regarding `CCCCCCCCCCCCCCCCS(=O)(=O)Nc1ccc(Br)cc1C(=O)C(=O)NCCC[N+](C)(C)C.[I-]` [Compound 18b, 3-(2-(5-Bromo-2-(hexadecylsulfonamido)phenyl)-2-oxoacetamido)-N,N,N-trimethylpropan-1-aminium iodide], the MIC (commonly the lowest concentration that inhibits growth of the organism) (Staphylococcus aureus) was 125 µM and 95 µg/mL.

`CCCCCCCCCCCCCCCCS(=O)(=O)Nc1ccc(Br)cc1C(=O)C(=O)NCCCN(C)C.Cl` [Compound 15b, 3-(2-(5-Bromo-2-(hexadecylsulfonamido)phenyl)-2-oxoacetamido)-N,N-dimethylpropan-1-aminium chloride]: the MIC is reported as 250 µM. Further, the MIC (Staphylococcus aureus) turned out to be 163 µg/mL.

For `CCCCCCCCCCCCS(=O)(=O)Nc1ccccc1C(=O)C(=O)NCCC[N+](C)(C)C.[I-]` [Compound 17a, 3-(2-(2-(Dodecylsulfonamido)phenyl)-2-oxoacetamido)-N,N,N-trimethylpropan-1-aminium iodide], the minimal inhibitory concentration (MIC) (Staphylococcus aureus) was 16 µM and 10 µg/mL.

Turning to `CCCCCCCCS(=O)(=O)Nc1ccc(-c2cccc(-c3ccccc3)c2)cc1C(=O)C(=O)NCCCN(C)C` [Compound 21, N-(3-(Dimethylamino)propyl)-2-(4-(octylsulfonamido)-[1,1′:3′,1″-terphenyl]-3-yl)-2-oxoacetamide], where the note is “Staphylococcus aureus”, the MIC was 16 µM and 9.2 µg/mL.

On to `CCCCCCCCCCCCS(=O)(=O)Nc1ccccc1C(=O)C(=O)NCCCN(C)C.Cl` [Compound 14a, 3-(2-(2-(Dodecylsulfonamido)phenyl)-2-oxoacetamido)-N,N-dimethylpropan-1-aminium chloride], for which, under “Staphylococcus aureus”, the MIC was 16 µM and 8.3 µg/mL.

In the case of `CCCCCCCCCCCCS(=O)(=O)Nc1ccc(-c2ccc(-c3ccccc3)cc2)cc1C(=O)C(=O)NCCC[N+](C)(C)C.[I-]` [Compound 17d, 3-(2-(4-(Dodecylsulfonamido)-[1,1′:4′,1″-terphenyl]-3-yl)-2-oxoacetamido)-N,N,N-trimethylpropan-1-aminium iodide], under “Staphylococcus aureus”, the MIC was 63 µM and 48 µg/mL.

With `CCCCCCCCCCCCCCCCS(=O)(=O)Nc1ccccc1C(=O)C(=O)NCCCN(C)C.Cl` [Compound 15a, 3-(2-(2-(Hexadecylsulfonamido)phenyl)-2-oxoacetamido)-N,N-dimethylpropan-1-aminium chloride], the minimal inhibitory concentration (MIC) is given as 63 µM. The MIC (Staphylococcus aureus) was determined as 36 µg/mL.

Turning to `CCCCCCCCCCCCCCCCS(=O)(=O)Nc1ccccc1C(=O)C(=O)NCCCN(C)C` [Compound 12a, N-(3-(Dimethylamino)propyl)-2-(2-(hexadecylsulfonamido)phenyl)-2-oxoacetamide], the MIC (Staphylococcus aureus) is 63 µM and 34 µg/mL.

Consider `CCCCCCCCCCCCCCCCS(=O)(=O)Nc1ccc(Br)cc1C(=O)C(=O)NCCCN(C)C` [Compound 12b, 2-(5-Bromo-2-(hexadecylsulfonamido)phenyl)-N-(3-(dimethylamino)propyl)-2-oxoacetamide], for which the MIC (Staphylococcus aureus) is 250 µM and 154 µg/mL.

For `CCCCCCCCCCCCS(=O)(=O)Nc1ccc(Br)cc1C(=O)C(=O)NCCCN(C)C.Cl` [Compound 14b, 3-(2-(5-Bromo-2-(dodecylsulfonamido)phenyl)-2-oxoacetamido)-N,N-dimethylpropan-1-aminium chloride], the minimal inhibitory concentration (MIC) (Staphylococcus aureus) was 16 µM and 9.6 µg/mL.

In the case of `CCCCCCCCCCCCS(=O)(=O)Nc1ccc(-c2ccc(-c3ccccc3)cc2)cc1C(=O)C(=O)NCCCN(C)C.Cl` [Compound 14d, 3-(2-(4-(Dodecylsulfonamido)-[1,1′:4′,1″-terphenyl]-3-yl)-2-oxoacetamido)-N,N-dimethylpropan-1-aminium chloride], the MIC is 125 µM. Moreover, the MIC (Staphylococcus aureus) came to 84 µg/mL.

For `CCCCCCCCCCCCCCCCS(=O)(=O)Nc1ccccc1C(=O)C(=O)NCCCNC(=N)N.Cl` [Compound 35a, N-(3-Guanidinopropyl)-2-(2-(hexadecylsulfonamido)phenyl)-2-oxoacetamide hydrochloride], the minimum inhibitory concentration (MIC) (Staphylococcus aureus) was 250 µM and 147 µg/mL.

Turning to `CCCCCCCCCCCCCCCCS(=O)(=O)Nc1ccc(-c2ccccc2)cc1C(=O)C(=O)NCCC[N+](C)(C)C.[I-]` [Compound 18c, 3-(2-(4-(Hexadecylsulfonamido)-[1,1′-biphenyl]-3-yl)-2-oxoacetamido)-N,N,N-trimethylpropan-1-aminium iodide], for the setting “Staphylococcus aureus”, the MIC was 250 µM and 189 µg/mL.

`CCCCCCCCCCCCS(=O)(=O)Nc1ccc(-c2ccccc2)cc1C(=O)C(=O)NCCCN(C)C` [Compound 11c, N-(3-(Dimethylamino)propyl)-2-(4-(dodecylsulfonamido)-[1,1′-biphenyl]-3-yl)-2-oxoacetamide]: the MIC (Staphylococcus aureus) was 16 µM and 8.9 µg/mL.

On to `CCCCCCCCCCCCS(=O)(=O)Nc1ccc(-c2ccc(-c3ccccc3)cc2)cc1C(=O)C(=O)NCCCN(C)C` [Compound 11d, N-(3-(Dimethylamino)propyl)-2-(4-(dodecylsulfonamido)-[1,1′:4′,1″-terphenyl]-3-yl)-2-oxoacetamide], for which the MIC (Staphylococcus aureus) is 250 µM and 158 µg/mL.

For the molecule `CCCCCCCCCCCCCCCCS(=O)(=O)Nc1ccc(-c2ccccc2)cc1C(=O)C(=O)NCCCN(C)C.Cl` [Compound 15c, 3-(2-(4-(Hexadecylsulfonamido)-[1,1′-biphenyl]-3-yl)-2-oxoacetamido)-N,N-dimethylpropan-1-aminium chloride], the minimal inhibitory concentration (MIC) was over 250 µM. In addition, the MIC (Staphylococcus aureus) is over 163 µg/mL.

As for `CCCCCCCCCCCCS(=O)(=O)Nc1ccc(Br)cc1C(=O)C(=O)NCCCN(C)C` [Compound 11b, 2-(5-Bromo-2-(dodecylsulfonamido)phenyl)-N-(3-(dimethylamino)propyl)-2-oxoacetamide], the MIC worked out at 32 µM. Besides, the MIC (Staphylococcus aureus) stood at 18 µg/mL.

As to `CCCCCCCCCCCCS(=O)(=O)Nc1ccccc1C(=O)C(=O)NCCCN(C)C` [Compound 11a, N-(3-(Dimethylamino)propyl)-2-(2-(dodecylsulfonamido)phenyl)-2-oxoacetamide], the MIC was found to be 32 µM. Also, the MIC (Staphylococcus aureus) stood at 15 µg/mL.

As for `CCCCCCCCCCCCS(=O)(=O)Nc1ccc(-c2ccccc2)cc1C(=O)C(=O)NCCCN(C)C.Cl` [Compound 14c, 3-(2-(4-(Dodecylsulfonamido)-[1,1′-biphenyl]-3-yl)-2-oxoacetamido)-N,N-dimethylpropan-1-aminium chloride], the MIC is given as 16 µM. The MIC (Staphylococcus aureus) turned out to be 9.5 µg/mL.
